Targets include Midasin (Homo sapiens, UniProt Q9NU22); TGF-beta receptor type-2 (Homo sapiens, UniProt P37173); Aurora kinase B (Homo sapiens, UniProt Q96GD4).
For assay [1], the target named is T1, Peroxisomal acyl-coenzyme A oxidase 1 (Homo sapiens, UniProt Q15067).
T1 sequence (Q15067 whole entry): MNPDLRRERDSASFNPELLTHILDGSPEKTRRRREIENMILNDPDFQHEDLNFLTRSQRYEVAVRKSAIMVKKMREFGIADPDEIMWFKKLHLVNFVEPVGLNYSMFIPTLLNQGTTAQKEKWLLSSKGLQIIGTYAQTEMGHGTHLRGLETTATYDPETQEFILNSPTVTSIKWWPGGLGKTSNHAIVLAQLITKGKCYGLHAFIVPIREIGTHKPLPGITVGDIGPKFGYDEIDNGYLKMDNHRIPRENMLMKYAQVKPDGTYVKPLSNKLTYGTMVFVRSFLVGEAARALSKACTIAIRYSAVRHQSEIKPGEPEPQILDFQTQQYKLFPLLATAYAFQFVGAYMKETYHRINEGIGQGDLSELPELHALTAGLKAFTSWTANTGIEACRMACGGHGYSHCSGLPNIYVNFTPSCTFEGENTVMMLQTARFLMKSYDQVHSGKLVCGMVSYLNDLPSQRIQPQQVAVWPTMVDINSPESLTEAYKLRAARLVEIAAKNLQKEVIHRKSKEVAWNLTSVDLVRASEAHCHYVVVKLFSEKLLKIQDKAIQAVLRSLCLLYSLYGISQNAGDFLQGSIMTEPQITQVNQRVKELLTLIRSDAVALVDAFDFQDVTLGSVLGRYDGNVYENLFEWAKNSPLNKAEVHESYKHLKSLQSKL

The target in the next assay is T2, Activin receptor type-1 (Homo sapiens, UniProt Q04771).
T2 sequence (Q04771 whole entry): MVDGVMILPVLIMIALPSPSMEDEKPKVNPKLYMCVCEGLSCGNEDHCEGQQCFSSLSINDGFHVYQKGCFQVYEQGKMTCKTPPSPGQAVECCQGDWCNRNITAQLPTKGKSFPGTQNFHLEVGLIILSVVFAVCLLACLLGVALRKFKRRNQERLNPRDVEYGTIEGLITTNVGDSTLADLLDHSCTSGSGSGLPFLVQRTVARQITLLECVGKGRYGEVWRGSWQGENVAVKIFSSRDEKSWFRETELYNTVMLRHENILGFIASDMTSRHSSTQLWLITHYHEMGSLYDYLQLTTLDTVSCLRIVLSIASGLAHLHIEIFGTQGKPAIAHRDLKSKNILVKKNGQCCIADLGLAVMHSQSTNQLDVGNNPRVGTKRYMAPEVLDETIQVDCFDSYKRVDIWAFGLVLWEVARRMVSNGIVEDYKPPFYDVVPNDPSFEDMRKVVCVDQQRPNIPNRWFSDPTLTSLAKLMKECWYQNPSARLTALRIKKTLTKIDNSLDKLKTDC

The target of the next assay is T3, Activin receptor type-1B (Homo sapiens, UniProt P36896).
T3 sequence (P36896 whole entry): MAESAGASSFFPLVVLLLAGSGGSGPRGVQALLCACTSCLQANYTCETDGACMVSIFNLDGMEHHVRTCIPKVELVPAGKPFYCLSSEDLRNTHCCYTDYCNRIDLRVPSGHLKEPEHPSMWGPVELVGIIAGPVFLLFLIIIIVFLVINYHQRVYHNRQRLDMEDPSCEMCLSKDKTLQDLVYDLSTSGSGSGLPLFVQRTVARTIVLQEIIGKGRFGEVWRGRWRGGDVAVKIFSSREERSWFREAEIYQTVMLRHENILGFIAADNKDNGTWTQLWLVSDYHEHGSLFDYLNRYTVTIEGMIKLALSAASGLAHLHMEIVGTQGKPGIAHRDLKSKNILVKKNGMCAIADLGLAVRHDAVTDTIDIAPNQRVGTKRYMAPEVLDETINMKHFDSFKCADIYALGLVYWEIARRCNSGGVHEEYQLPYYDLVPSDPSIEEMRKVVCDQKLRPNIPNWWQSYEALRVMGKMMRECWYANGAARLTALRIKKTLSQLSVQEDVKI

The target in assay [2] is Mitogen-activated protein kinase 3 (Homo sapiens, UniProt P27361).
Mitogen-activated protein kinase 3, sequence (P27361 whole entry): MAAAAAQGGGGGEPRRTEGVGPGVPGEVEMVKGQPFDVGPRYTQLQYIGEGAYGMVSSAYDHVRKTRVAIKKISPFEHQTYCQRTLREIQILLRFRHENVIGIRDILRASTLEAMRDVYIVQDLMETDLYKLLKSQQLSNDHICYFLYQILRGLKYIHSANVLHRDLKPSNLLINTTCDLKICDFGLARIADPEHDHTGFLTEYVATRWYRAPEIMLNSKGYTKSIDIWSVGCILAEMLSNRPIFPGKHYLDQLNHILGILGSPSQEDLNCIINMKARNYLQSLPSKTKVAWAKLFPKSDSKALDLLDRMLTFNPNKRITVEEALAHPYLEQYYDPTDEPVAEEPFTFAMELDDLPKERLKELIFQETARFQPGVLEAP
Assay [3] deals with Ribosomal protein S6 kinase alpha-1 (Homo sapiens, UniProt Q15418).
Ribosomal protein S6 kinase alpha-1, sequence (Q15418 whole entry): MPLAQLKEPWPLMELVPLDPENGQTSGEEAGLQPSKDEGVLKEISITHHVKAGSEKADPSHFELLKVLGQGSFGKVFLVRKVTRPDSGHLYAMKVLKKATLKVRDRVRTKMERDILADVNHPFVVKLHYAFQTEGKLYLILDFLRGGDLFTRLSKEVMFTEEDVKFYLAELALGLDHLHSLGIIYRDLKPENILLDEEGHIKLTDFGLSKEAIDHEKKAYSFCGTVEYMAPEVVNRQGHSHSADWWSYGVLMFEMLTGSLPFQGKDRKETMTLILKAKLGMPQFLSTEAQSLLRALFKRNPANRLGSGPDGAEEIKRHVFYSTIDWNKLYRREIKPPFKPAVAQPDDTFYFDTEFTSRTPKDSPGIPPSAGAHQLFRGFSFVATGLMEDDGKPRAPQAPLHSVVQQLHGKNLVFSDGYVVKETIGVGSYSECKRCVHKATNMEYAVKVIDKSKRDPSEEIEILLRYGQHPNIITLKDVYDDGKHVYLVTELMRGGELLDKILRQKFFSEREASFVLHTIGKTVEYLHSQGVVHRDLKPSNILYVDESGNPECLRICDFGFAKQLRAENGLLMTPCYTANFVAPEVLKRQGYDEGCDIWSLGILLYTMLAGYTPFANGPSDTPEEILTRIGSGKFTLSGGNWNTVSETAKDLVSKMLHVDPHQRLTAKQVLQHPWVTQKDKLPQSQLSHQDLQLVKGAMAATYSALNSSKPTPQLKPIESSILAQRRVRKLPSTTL
Assay [4] has as its target Tyrosine-protein kinase HCK (Homo sapiens, UniProt P08631).
Assay [5] deals with cAMP-dependent protein kinase catalytic subunit beta (Homo sapiens, UniProt P22694).
The target in assay [6] is cAMP-dependent protein kinase catalytic subunit gamma (Homo sapiens, UniProt P22612).
cAMP-dependent protein kinase catalytic subunit gamma, sequence (P22612 whole entry): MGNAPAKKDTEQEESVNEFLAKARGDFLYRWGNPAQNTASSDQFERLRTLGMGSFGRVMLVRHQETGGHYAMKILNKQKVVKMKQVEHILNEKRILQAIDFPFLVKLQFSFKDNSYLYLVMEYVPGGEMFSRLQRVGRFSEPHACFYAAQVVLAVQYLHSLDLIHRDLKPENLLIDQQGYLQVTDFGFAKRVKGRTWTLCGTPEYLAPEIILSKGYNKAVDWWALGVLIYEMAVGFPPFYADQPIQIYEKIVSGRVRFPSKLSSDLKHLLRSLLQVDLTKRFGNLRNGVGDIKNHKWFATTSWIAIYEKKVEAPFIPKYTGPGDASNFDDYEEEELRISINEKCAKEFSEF
The target of assay [7] is Glycogen synthase kinase-3 beta (Homo sapiens, UniProt P49841).
Glycogen synthase kinase-3 beta, sequence (P49841 whole entry): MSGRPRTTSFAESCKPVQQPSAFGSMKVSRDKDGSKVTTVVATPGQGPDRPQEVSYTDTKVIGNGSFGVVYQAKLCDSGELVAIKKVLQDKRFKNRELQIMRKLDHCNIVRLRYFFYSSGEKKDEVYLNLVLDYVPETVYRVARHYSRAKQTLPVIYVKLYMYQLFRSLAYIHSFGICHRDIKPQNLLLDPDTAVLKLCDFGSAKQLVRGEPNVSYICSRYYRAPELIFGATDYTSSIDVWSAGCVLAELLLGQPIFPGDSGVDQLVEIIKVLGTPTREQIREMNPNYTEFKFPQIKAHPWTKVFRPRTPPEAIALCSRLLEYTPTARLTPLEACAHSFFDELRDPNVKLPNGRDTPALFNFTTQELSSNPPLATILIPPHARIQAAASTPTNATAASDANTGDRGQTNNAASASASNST
Assay [8] concerns the target MAP kinase-activated protein kinase 2 (Homo sapiens, UniProt P49137).
The target of assay [9] is MAP/microtubule affinity-regulating kinase 3 (Homo sapiens, UniProt P27448).
MAP/microtubule affinity-regulating kinase 3, sequence (P27448 whole entry): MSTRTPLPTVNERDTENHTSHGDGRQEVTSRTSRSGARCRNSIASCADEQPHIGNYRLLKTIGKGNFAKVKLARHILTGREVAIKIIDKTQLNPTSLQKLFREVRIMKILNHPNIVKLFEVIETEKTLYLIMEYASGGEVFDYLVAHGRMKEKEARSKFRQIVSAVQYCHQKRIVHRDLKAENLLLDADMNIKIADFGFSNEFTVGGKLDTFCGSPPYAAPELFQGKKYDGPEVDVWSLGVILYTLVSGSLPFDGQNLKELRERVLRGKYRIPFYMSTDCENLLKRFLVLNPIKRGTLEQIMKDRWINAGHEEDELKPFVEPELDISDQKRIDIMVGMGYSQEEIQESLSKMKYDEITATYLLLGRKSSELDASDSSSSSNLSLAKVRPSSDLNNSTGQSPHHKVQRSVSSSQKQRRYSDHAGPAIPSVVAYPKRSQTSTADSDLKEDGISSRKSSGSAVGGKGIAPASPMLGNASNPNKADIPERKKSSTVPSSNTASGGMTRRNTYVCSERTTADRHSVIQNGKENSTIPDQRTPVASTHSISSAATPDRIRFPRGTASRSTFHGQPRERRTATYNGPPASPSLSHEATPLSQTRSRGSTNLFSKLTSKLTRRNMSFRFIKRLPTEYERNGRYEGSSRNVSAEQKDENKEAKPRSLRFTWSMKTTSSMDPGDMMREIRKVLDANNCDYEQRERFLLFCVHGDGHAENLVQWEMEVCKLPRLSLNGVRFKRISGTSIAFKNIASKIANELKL

The source made the active and inactive calls. Rule as the data show it, for most assays here: actives have a measured Kd and inactives only a lower limit. Some results are limits rather than exact numbers.
Also: in the data inactive means no Kd found up to 30 µM.

Tyrosine-protein kinase HCK, sequence (P08631 whole entry): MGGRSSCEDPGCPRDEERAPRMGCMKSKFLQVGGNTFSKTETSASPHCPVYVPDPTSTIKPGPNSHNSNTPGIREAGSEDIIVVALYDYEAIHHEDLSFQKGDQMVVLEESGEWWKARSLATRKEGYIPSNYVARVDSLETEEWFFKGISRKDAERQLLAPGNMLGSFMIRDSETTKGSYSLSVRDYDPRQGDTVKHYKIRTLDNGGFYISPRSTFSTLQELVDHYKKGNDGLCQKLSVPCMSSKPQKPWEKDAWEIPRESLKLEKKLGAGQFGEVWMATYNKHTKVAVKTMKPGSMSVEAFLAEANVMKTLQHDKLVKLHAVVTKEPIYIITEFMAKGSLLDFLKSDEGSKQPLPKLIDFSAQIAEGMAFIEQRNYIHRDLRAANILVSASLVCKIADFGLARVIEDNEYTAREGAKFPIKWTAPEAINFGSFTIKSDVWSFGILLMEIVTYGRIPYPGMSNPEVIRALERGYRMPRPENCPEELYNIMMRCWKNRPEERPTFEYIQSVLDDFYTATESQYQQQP
TGF-beta receptor type-2, sequence (P37173 whole entry): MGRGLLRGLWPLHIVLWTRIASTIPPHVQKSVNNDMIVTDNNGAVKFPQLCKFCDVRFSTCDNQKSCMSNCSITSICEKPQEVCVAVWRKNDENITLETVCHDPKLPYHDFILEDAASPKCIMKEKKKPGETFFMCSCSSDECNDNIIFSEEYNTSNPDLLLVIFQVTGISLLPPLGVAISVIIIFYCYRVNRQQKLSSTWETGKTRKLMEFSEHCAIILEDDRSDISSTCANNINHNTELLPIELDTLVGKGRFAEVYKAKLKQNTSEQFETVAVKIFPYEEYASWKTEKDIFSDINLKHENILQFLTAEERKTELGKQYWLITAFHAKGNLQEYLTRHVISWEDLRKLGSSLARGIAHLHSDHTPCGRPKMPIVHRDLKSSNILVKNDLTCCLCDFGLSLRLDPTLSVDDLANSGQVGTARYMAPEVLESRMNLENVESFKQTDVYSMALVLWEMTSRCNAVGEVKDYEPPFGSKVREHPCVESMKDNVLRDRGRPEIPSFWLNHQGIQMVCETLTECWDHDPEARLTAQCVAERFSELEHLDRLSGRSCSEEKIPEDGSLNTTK
MAP kinase-activated protein kinase 2, sequence (P49137 whole entry): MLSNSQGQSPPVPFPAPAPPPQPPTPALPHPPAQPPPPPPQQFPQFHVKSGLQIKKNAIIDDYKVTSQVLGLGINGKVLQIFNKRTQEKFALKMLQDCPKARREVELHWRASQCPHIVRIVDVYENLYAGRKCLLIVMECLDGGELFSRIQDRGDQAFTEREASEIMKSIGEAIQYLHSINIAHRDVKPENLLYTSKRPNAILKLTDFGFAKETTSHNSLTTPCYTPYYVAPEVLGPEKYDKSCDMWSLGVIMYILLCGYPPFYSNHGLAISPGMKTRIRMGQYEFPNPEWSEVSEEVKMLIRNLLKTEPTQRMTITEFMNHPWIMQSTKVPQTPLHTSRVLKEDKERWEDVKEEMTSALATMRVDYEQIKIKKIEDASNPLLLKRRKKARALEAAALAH
Aurora kinase B, sequence (Q96GD4 whole entry): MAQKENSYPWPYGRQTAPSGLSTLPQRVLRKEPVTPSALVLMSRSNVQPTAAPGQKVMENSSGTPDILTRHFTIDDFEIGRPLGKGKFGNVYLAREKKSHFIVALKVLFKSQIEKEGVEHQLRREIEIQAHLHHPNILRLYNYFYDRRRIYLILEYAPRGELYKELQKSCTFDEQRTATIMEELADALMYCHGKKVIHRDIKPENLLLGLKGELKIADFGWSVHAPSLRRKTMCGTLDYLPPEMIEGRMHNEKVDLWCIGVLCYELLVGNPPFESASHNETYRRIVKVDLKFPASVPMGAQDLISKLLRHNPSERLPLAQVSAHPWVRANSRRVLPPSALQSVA

On to `Cc1nc(N)sc1-c1ccnc(Nc2ccc(N3CCOCC3)cc2)n1` [CYC-116], for which the Kd in assay [1] was > 30 µM (inactive); on Activin receptor type-1, 0.396 µM (active); on Activin receptor type-1B, 1.27 µM (active); in assay [2], > 30 µM (inactive); at Midasin, > 30 µM (inactive); in assay [3], > 30 µM (inactive). The dissociation constant Kd at TGF-beta receptor type-2 is 0.3 µM (active).

For `Cc1cc(Nc2cc(N3CCN(C)CC3)nc(/C=C/c3ccccc3)n2)n[nH]1` [ENMD-2076], the Kd (in assay [1]; at Activin receptor type-1B; in assay [4]; in [2]; on Midasin; in [5]) was > 30 µM (inactive) in each case. Also, the Kd is > 30 µM (inactive) in assay [6], > 30 µM (inactive) in assay [3] and 2.35 µM (active) on TGF-beta receptor type-2.

For `O=C(Nc1cccc(Cl)c1)Nc1ncc(CCNc2ncnc3ccsc23)s1` [SNS-314], the Kd (in assay [1]; at Activin receptor type-1; on Activin receptor type-1B; in [4]; in assay [2]; at Midasin) was > 30 µM (inactive) each time. In addition, the Kd (in assay [5]; in assay [3]; at TGF-beta receptor type-2) was > 30 µM (inactive) in each case.

Regarding `Nc1nc(N)c2nc(-c3cccc(O)c3)c(-c3cccc(O)c3)nc2n1` [TG100-115], the Kd (in [1]; on Midasin; in [6]) was > 30 µM (inactive) in each case.

Regarding `CN1CCN(c2ccc3nc(-c4c(N)c5c(F)cccc5[nH]c4=O)[nH]c3c2)CC1` [DOVITINIB], the Kd (in assay [1]; at Midasin; in assay [6]) was > 30 µM (inactive) each time.

For `O=C(O)[C@]1(Cc2cccc(Nc3nccs3)n2)CC[C@@H](Oc2cccc(Cl)c2F)CC1` [MK-5108], the Kd at Activin receptor type-1 was 0.121 µM (active); on Activin receptor type-1B, 0.425 µM (active); in assay [7], > 30 µM (inactive); in [4], > 30 µM (inactive); in [2] it was > 30 µM (inactive); in assay [8], > 30 µM (inactive). Moreover, the Kd (in assay [9]; on Midasin; in assay [5]; in assay [3]; on TGF-beta receptor type-2) was > 30 µM (inactive) each time.

For the compound `COc1cc2nccc(Oc3ccc(NC(=O)Nc4cc(C)on4)c(Cl)c3)c2cc1OC` [TIVOZANIB], the Kd (in assay [1]; at Activin receptor type-1; at Activin receptor type-1B; in [7]; in assay [4]; in assay [2]) was > 30 µM (inactive) in each case. The Kd (in assay [8]; in assay [9]; on Midasin; in assay [5]; in [6]; in [3]) was > 30 µM (inactive) in each case. Further, the Kd at TGF-beta receptor type-2 was > 30 µM (inactive).

Turning to `CCc1cnn2c(NCc3ccc[n+]([O-])c3)cc(N3CCCC[C@H]3CCO)nc12` [DINACICLIB], the Kd in [1] is > 30 µM (inactive); on Activin receptor type-1, > 30 µM (inactive); on Activin receptor type-1B, > 30 µM (inactive); in assay [7], 1.43 µM (active); in assay [4], > 30 µM (inactive); in assay [2], > 30 µM (inactive). In addition, the Kd (in assay [8]; in assay [9]; on Midasin; in assay [5]; in assay [6]; in assay [3]) was > 30 µM (inactive) each time. For the same compound, the Kd at TGF-beta receptor type-2 was > 30 µM (inactive).

Take `OCCn1cc(-c2cnc3nnn(Cc4ccc5ncccc5c4)c3n2)cn1` [PF-04217903]: the Kd (in [1]; at Activin receptor type-1B; in [4]; in assay [2]; in [8]; in assay [9]) was > 30 µM (inactive) in each case. In addition, the Kd (at Midasin; in [5]; in assay [3]; at TGF-beta receptor type-2) was > 30 µM (inactive) in each case.

Turning to `COCCNCc1ccc(-c2cc3nccc(Oc4ccc(NC(=S)NC(=O)Cc5ccc(F)cc5)cc4F)c3s2)nc1` [GLESATINIB], the Kd was > 30 µM (inactive) at Activin receptor type-1; > 30 µM (inactive) on Activin receptor type-1B; > 30 µM (inactive) on Aurora kinase B; > 30 µM (inactive) in assay [7]; 0.283 µM (active) in assay [4]; > 30 µM (inactive) in assay [2]. The Kd (in assay [8]; in assay [9]; on Midasin; in [5]; in assay [3]; at TGF-beta receptor type-2) was > 30 µM (inactive) in each case.

As to `CCn1c(-c2nonc2N)nc2c(C#CC(C)(C)O)ncc(OC[C@H]3CCCNC3)c21` [GSK-690693], the Kd (in assay [1]; on Midasin; in assay [6]) was > 30 µM (inactive) throughout.

As for `Cc1cn(-c2cc(NC(=O)c3ccc(C)c(Nc4nccc(-c5cccnc5)n4)c3)cc(C(F)(F)F)c2)cn1` [NILOTINIB], the Kd (on Midasin; in [6]) was > 30 µM (inactive) each time.

Consider `CNC(=O)c1ccc(C)c(-n2c(C)cc(OCc3ccc(F)cc3F)c(Br)c2=O)c1` [PH-797804], for which the Kd (in assay [1]; at Activin receptor type-1; at Activin receptor type-1B; on Aurora kinase B; in [7]; in assay [4]) was > 30 µM (inactive) in each case. Moreover, the Kd (in assay [2]; in assay [9]; at Midasin; in [5]; in assay [3]; on TGF-beta receptor type-2) was > 30 µM (inactive) in each case.

Turning to `C=CC(=O)N1CCC(Oc2cc3c(Nc4ccc(Cl)c(Cl)c4F)ncnc3cc2OC)CC1` [POZIOTINIB], the Kd (in assay [1]; on Activin receptor type-1; on Activin receptor type-1B; in [7]; in assay [4]; in assay [2]) was > 30 µM (inactive) throughout. Besides, the Kd (in assay [8]; in assay [9]; on Midasin; in [5]; in [6]; in [3]) was > 30 µM (inactive) each time. The Kd on TGF-beta receptor type-2 was > 30 µM (inactive).

The record behind these values is ChEMBL document CHEMBL3991601, “The target landscape of clinical kinase drugs” (Science, 2017).
